# Patent publication US10561638B2, “Methods for treating dependence” (Biotie Therapies, Inc., priority 2007, dated 2020)
# “Also recorded” adds a separate entry of the source.
# Tested on: MPTP-lesioned squirrel monkey
# Assay: MPTP-lesioned squirrel monkey Parkinsonian model
# Type: in vivo, squirrel monkeys
# Procedure: Twenty four squirrel monkeys, fourteen females and ten males were used in a Parkinsonian model. The twenty-four animals were randomly assigned to one of four treatment groups, with 6 animals per group. The groups consisted of the following: Group A (6 animals) received placebo (water) treatment; Group B (5 animals) received drug nepicastat at 1 mg/kg/day (0.5 mg/kg twice daily); Group C (6 animals) received 4 mg/kg/day (2 mg/kg twice daily); and Group D (6 animals) received 10 mg/kg/day (5 mg/kg twice daily). In Group B, one animal died acutely following MPTP-lesioning, and was not replaced.
# Prior to lesioning, animals were subjected to quantitative assessment of spontaneous motor activity using an infrared activity monitor (IRAM) cage. All recording sessions were 60 minutes in length and were carried out for 10 sessions over a period of 2 weeks. The behavior of animals was also assessed by 1 to 3 clinical raters using a parkinsonian clinical rating scale (CRS) once per day (12 noon to 1 pm) for 3 to 5 consecutive days. […] Both the activity monitoring (IRAM) and clinical rating assessments established the mean base-line activity of each animal.
# Animals were lesioned by the administration of MPTP at a concentration of 2.0 mg/kg (free-base) via subcutaneous injection to achieve a parkinsonian state. A post-MPTP lesioning behavioral assessment was carried out 2 to 4 weeks after the last MPTP-lesioning. Locomotor activity was monitored by IRAM in 60-minute sessions for 3 to 5 days. Clinical behavior (CAS) was assessed by one to three individuals rating over a period of 3 to 5 days.
# Animals were tested for response to L-Dopa and the efficacy of drug nepicastat. Testing was carried out 4 to 12 weeks after the last MPTP dose. L-Dopa was administered at a concentration of either 2.5, 5, or 7.5 mg/kg by oral gavage twice daily (at 10 am and 2 pm) for 7 consecutive days. Behavior was determined by IRAM and CRS. Clinical rating was carried out 60 to 90 minutes following the 10 am morning dose on the last 4 days of treatment. Raters (one to three individuals) were blinded to the different treatment groups. IRAM assessment were preformed for 90 minutes immediately following drug administration at 2 pm on the last 2 to 5 days of drug treatment. There was a minimum 2 day washout period between each treatment dose.
# Nepicastat or water (as placebo) was administered for 12 days following a minimum 2 day washout after L-Dopa dosing. Drug was administered twice daily at 10 am and 2 pm by oral gavage. Behavior was rated by IRAM and CRS. The CRS was conducted in the morning, 60 to 90 minutes after the 10 am dose of nepicastat on the last 5 days of drug treatment. Raters (one to three individuals) were blinded to the different treatment groups. IRAM assessments were preformed for 90 minutes immediately following drug administration at 2 pm on the last 5 days of drug treatment.
# Eight parkinsonian features were rated in each animal and the total score was derived from the sum of these eight features. For each animal, a single clinical rating score was obtained for each drug dose by averaging the clinical rating scores of all raters (one to three) conducted over the consecutive multiple dosing (with the same dose) days. This average CRS was used for statistical analysis. A lower score was considered a less parkinsonian behavioral state.
# Statistical analysis consisted of: (1) comparisons between the average CRS of placebo to nepicastat at 1, 4, and 10 mg/kg/day using the Kruskal-Wallis (non-parametric analysis of variance). This comparison was repeated using the average CRS for each experimental drug concentration corrected by the final post-MPTP ratings for each animal. The corrected clinical scores are clinical scores of experimental drug at each concentration as a ratio of post-MPTP clinical scores. […]
smiles,measurement,setting,value
"Cl.NCc1c[nH]c(=S)n1[C@H]1CCc2c(F)cc(F)cc2C1 [nepicastat, (S)-5-Aminomethyl-1-(5,7-difluoro-1,2,3,4-tetrahydronaphth-2-yl)-2,3-dihydro-2-thioxo-1H-imidazole hydrochloride]",activity monitoring (IRAM) vs placebo,1 mg/kg/day,slower than placebo treatment
same,parkinsonian clinical rating vs placebo,"1, 4, 10 mg/kg/day, 12 days, hydrochloride",no detectable differences; also recorded: no significant effect in parkinsonian symptoms compared to placebo
same,activity monitoring (IRAM) vs placebo,4 and 10 mg/kg/day,no difference
same,parkinsonian clinical rating vs post-MPTP (pre-treatment) state,"nepicastat 4 and 10 mg/kg/day, hydrochloride",significant improvement over the post-MPTP (pre-treatment) state; also recorded: significant effect in parkinsonian symptoms compared to post-MPTP lesioning
